Holding throughout (format): functional
The test system of experiment [1] is Fusarium oxysporum f. sp. vasinfectum. Put plainly: Antifungal activity against Fusarium oxysporum f. sp. vasinfectum assessed as percent inhibition at 100 ug/ml.
In a further experiment the test system is Pyricularia oryzae. Put plainly: Antifungal activity against Pyricularia oryzae assessed as percent inhibition at 100 ug/ml.
The next experiment has as its system Alternaria alternata. Put plainly: Antifungal activity against Alternaria alternata assessed as percent inhibition at 100 ug/ml.
The test system of a further experiment is Alternaria brassicae. Put plainly: Antifungal activity against Alternaria brassicae assessed as percent inhibition at 100 ug/ml.
The subject of another experiment is Fusarium graminearum. Put plainly: Antifungal activity against Fusarium graminearum assessed as percent inhibition at 100 ug/ml.
In a further experiment the test system is Bipolaris sorokiniana. Put plainly: Antifungal activity against Bipolaris sorokiniana assessed as percent inhibition at 100 ug/ml.
Experiment [2] in a line: Antifungal activity against Fusarium oxysporum f. sp. cucumerinum assessed as percent inhibition at 100 ug/ml.

The values that follow come from ChEMBL document CHEMBL1287778, “Antifungal agents. Part 5: synthesis and antifungal activities of aminoguanidine derivatives of N-arylsulfonyl-3-acylindoles” (2010).

By inhibition is commonly meant the share of the control response that was lost under treatment.

As for `Cc1ccc2c(/C=N/NC(=N)N)cn(S(=O)(=O)c3ccccc3)c2c1`, the inhibition at 100 µg/mL in experiment [1] is 40%; in the experiment with Pyricularia oryzae, 64.2%; in the experiment on Alternaria alternata, 69.2%; in the experiment on Alternaria brassicae, 48.4%; in the experiment with Fusarium graminearum it was 47.8%; with Bipolaris sorokiniana, 59.5%. The inhibition in experiment [2] stood at 41%.
In the case of `C/C(=N\NC(=N)N)c1cn(S(=O)(=O)c2ccc(C)cc2)c2ccccc12`, the inhibition at 100 µg/mL came out at 58.3% in experiment [1]; 52.3% with Pyricularia oryzae; 62.9% in the experiment with Alternaria alternata; 37.9% with Alternaria brassicae; 48.8% in the experiment with Fusarium graminearum; 58.4% in the experiment on Bipolaris sorokiniana. The inhibition in experiment [2] was found to be 37.2%.
For `N=C(N)N/N=C/c1cn(S(=O)(=O)c2ccccc2)c2ccccc12`, the inhibition at 100 µg/mL in experiment [1] came out at 47.8%; with Pyricularia oryzae, 57.8%; in the experiment on Alternaria alternata, 61.5%; with Alternaria brassicae it was 38.8%; in the experiment on Fusarium graminearum, 46.3%; in the experiment with Bipolaris sorokiniana, 66.5%. For the same molecule, the inhibition in experiment [2] worked out at 33.7%.
As to `Cc1cc(O)no1` [HYMEXAZOL], the inhibition at 100 µg/mL turned out to be 63.2% in experiment [1]; 75.1% in the experiment with Pyricularia oryzae; 70.8% in the experiment on Alternaria alternata; 58% with Alternaria brassicae; 68% in the experiment on Fusarium graminearum; 61.9% in the experiment with Bipolaris sorokiniana. In addition, the inhibition in experiment [2] was found to be 60%.
As for `Cc1cccc2c1c(/C=N/NC(=N)N)cn2S(=O)(=O)c1ccccc1`, the inhibition at 100 µg/mL in experiment [1] amounted to 19.9%; in the experiment on Pyricularia oryzae, 46.8%; in the experiment with Alternaria alternata it was 42.5%; with Alternaria brassicae, 21.1%; in the experiment on Fusarium graminearum, 26%; in the experiment on Bipolaris sorokiniana, 36.9%. For the same molecule, the inhibition in experiment [2] was determined as 26.3%.
Turning to `CCCCC/C(=N\NC(=N)N)c1cn(S(=O)(=O)c2ccc(C)cc2)c2cc(C)ccc12`, the inhibition at 100 µg/mL was found to be 33.3% in experiment [1]; 44.5% in the experiment with Pyricularia oryzae; 54.7% in the experiment on Alternaria alternata; 22.8% with Alternaria brassicae; 28.5% with Fusarium graminearum; 50.5% in the experiment on Bipolaris sorokiniana. The inhibition in experiment [2] was determined as 39.8%.
Turning to `Cc1ccc(S(=O)(=O)n2cc(/C=N/NC(=N)N)c3ccccc32)cc1`, the inhibition at 100 µg/mL in experiment [1] was 51.8%; in the experiment on Pyricularia oryzae it was 56.7%; in the experiment on Alternaria alternata, 65.3%; with Alternaria brassicae it was 34.9%; in the experiment on Fusarium graminearum, 44.1%; with Bipolaris sorokiniana, 66%. Moreover, in experiment [2], the inhibition amounted to 36.5%.
Consider `N#Cc1ccc2c(c1)c(/C=N/NC(=N)N)cn2S(=O)(=O)c1ccccc1`, for which the inhibition at 100 µg/mL in experiment [1] worked out at 14.1%; in the experiment with Pyricularia oryzae, 20.1%; in the experiment on Alternaria alternata, 23.4%; in the experiment on Alternaria brassicae, 9.09%; in the experiment on Fusarium graminearum it was 26%; in the experiment on Bipolaris sorokiniana, 13.8%. For the same molecule, in experiment [2], the inhibition was 11.1%.
Turning to `CCCCC/C(=N\NC(=N)N)c1cn(S(=O)(=O)c2ccccc2)c2ccccc12`, the inhibition at 100 µg/mL in experiment [1] was 30.7%; in the experiment on Pyricularia oryzae, 52%; in the experiment with Alternaria alternata, 60.6%; in the experiment on Alternaria brassicae, 30%; with Fusarium graminearum, 39.4%; in the experiment on Bipolaris sorokiniana, 50.2%. Besides, the inhibition in experiment [2] worked out at 38.6%.
Turning to `C/C(=N\NC(=N)N)c1cn(S(=O)(=O)c2ccc(C)cc2)c2cccc(C)c12`, the inhibition at 100 µg/mL in experiment [1] stood at 55.6%; with Pyricularia oryzae it was 84.8%; with Alternaria alternata, 83%; with Alternaria brassicae it was 56.9%; with Fusarium graminearum, 46.6%; in the experiment on Bipolaris sorokiniana it was 80.6%. Besides, in experiment [2], the inhibition was 57%.
Take `C/C(=N\NC(=N)N)c1cn(S(=O)(=O)c2ccccc2)c2ccccc12`: the inhibition at 100 µg/mL turned out to be 60% in experiment [1]; 74.3% in the experiment on Pyricularia oryzae; 73.5% with Alternaria alternata; 40.2% with Alternaria brassicae; 37.8% in the experiment on Fusarium graminearum; 75.3% in the experiment with Bipolaris sorokiniana. Also, the inhibition in experiment [2] came out at 49.7%.
Regarding `C/C(=N\NC(=N)N)c1cn(S(=O)(=O)c2ccccc2)c2cccc(C)c12`, the inhibition at 100 µg/mL in experiment [1] worked out at 64.9%; in the experiment with Pyricularia oryzae it was 79.6%; in the experiment with Alternaria alternata, 79.2%; with Alternaria brassicae, 52%; in the experiment on Fusarium graminearum, 52.3%; with Bipolaris sorokiniana, 82.3%. In experiment [2], the inhibition was found to be 63.1%.
As to `Cc1ccc(S(=O)(=O)n2cc(/C=N/NC(=N)N)c3cc(C#N)ccc32)cc1`, the inhibition at 100 µg/mL in experiment [1] was found to be 13%; in the experiment with Pyricularia oryzae it was 16.3%; in the experiment with Alternaria alternata, 15.2%; with Alternaria brassicae it was 10.4%; in the experiment with Fusarium graminearum, 13.3%; in the experiment on Bipolaris sorokiniana, 17%. Also, the inhibition in experiment [2] turned out to be 6.55%.
`CC/C(=N\NC(=N)N)c1cn(S(=O)(=O)c2ccccc2)c2ccccc12`: the inhibition at 100 µg/mL in experiment [1] came out at 56.7%; in the experiment on Pyricularia oryzae, 75.6%; in the experiment with Alternaria alternata, 73.8%; in the experiment with Alternaria brassicae, 43.3%; in the experiment on Fusarium graminearum it was 50.5%; in the experiment on Bipolaris sorokiniana, 69.2%. Also, the inhibition in experiment [2] is 48.4%.
With `Cc1ccc(S(=O)(=O)n2cc(/C=N/NC(=N)N)c3c(C)cccc32)cc1`, the inhibition at 100 µg/mL is 41.6% in experiment [1]; 72.2% in the experiment with Pyricularia oryzae; 70.8% with Alternaria alternata; 49.1% with Alternaria brassicae; 48.2% in the experiment on Fusarium graminearum; 72.6% with Bipolaris sorokiniana. Further, the inhibition in experiment [2] amounted to 44.7%.
As for `Cc1ccc(S(=O)(=O)n2cc(/C=N/NC(=N)N)c3ccc(C)cc32)cc1`, the inhibition at 100 µg/mL in experiment [1] was determined as 40.5%; in the experiment on Pyricularia oryzae, 58.2%; in the experiment on Alternaria alternata, 59.2%; with Alternaria brassicae, 30.9%; with Fusarium graminearum it was 39%; in the experiment with Bipolaris sorokiniana, 46.2%. For the same molecule, the inhibition in experiment [2] stood at 43.5%.
Take `N=C(N)N/N=C/c1cn(S(=O)(=O)c2cccc([N+](=O)[O-])c2)c2ccccc12`: the inhibition at 100 µg/mL in experiment [1] came to 28.6%; with Pyricularia oryzae, 42.3%; in the experiment with Alternaria alternata, 51.1%; in the experiment on Alternaria brassicae, 30%; with Fusarium graminearum it was 31.4%; with Bipolaris sorokiniana it was 36.9%. For the same molecule, the inhibition in experiment [2] came to 28%.
Turning to `C/C(=N\NC(=N)N)c1cn(S(=O)(=O)c2cccc([N+](=O)[O-])c2)c2cc(C)ccc12`, the inhibition at 100 µg/mL in experiment [1] is 23.2%; with Pyricularia oryzae, 50.7%; in the experiment on Alternaria alternata it was 50.6%; in the experiment with Alternaria brassicae, 33.3%; in the experiment on Fusarium graminearum, 20.6%; in the experiment with Bipolaris sorokiniana it was 37.6%. Moreover, the inhibition in experiment [2] was determined as 34.9%.
As to `COc1ccc(S(=O)(=O)n2cc(/C(C)=N/NC(=N)N)c3ccc(C)cc32)cc1`, the inhibition at 100 µg/mL turned out to be 24.2% in experiment [1]; 43% in the experiment with Pyricularia oryzae; 42.5% with Alternaria alternata; 18.2% in the experiment with Alternaria brassicae; 44.8% in the experiment on Fusarium graminearum; 35% in the experiment on Bipolaris sorokiniana. Also, the inhibition in experiment [2] turned out to be 25.8%.
